Here are results for seven molecules from PubChem BioAssay (NCI).

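Interpolation was linear, between the two tested concentrations surrounding the appropriate level; five concentrations were tested over 48 hours in 96-well plates. The concentration for full growth arrest is given as TGI.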

What all share (experiment): DTP human tumour cell line panel, 48 h
Assay [1] concerns SF-295 CNS.
Assay [2] has as its system M14 melanoma.
For assay [3], the system named is HT29 colon.
Assay [4] concerns A498 renal.
Assay [5] has as its system SK-OV-3 ovarian.
In assay [6] the test system is HOP-92 NSCLC.
Assay [7] concerns SF-268 CNS.
The subject of assay [8] is MOLT-4 leukemia.
The subject of assay [9] is MDA-MB-435.
Assay [10] concerns NCI-H460 lung.
Assay [11] relates to TK-10 renal.
The test system of assay [12] is OVCAR-5 ovarian.
Assay [13] deals with SNB-19 CNS.
For assay [14], the system named is MDA-MB-231 breast.
In assay [15] the test system is LOX IMVI melanoma.
For assay [16], the system named is SW-620 colon.
Assay [17] relates to T-47D breast.
For assay [18], the system named is NCI-H522 lung.
For assay [19], the system named is HCC-2998 colon.
The subject of assay [20] is UO-31 renal.

Usually TGI stands for the concentration giving total growth inhibition. Read a low TGI as more potent growth arrest. In the case of `COC(=O)C[C@@H]1C(C)(C)[C@@H]2O[C@@]34C[C@@H]2C(=O)[C@]1(C)[C@H]3CC[C@@]1(C)[C@H](c2ccoc2)OC(=O)C[C@]14O`, the TGI in assay [1], in [2], in assay [3], in assay [4], in [5] and in assay [6] was greater than 100 µM each time. Also, the TGI in [7], in assay [8], in [9], in assay [10], in assay [11] and in assay [12] was greater than 100 µM in each case. The concentration for total growth inhibition (TGI) in [13], in assay [14], in [15], in [16], in assay [17] and in [18] was greater than 100 µM in each case.
With `CCCCOC(=O)C1CN2C=CC=NC2=NC1(C(F)(F)F)C(F)(F)F` (stereo not given), the total growth inhibition concentration (TGI) in [1], in assay [2], in [3], in [4], in [5] and in assay [6] was greater than 100 µM throughout. Also, the TGI in assay [19], in [7], in [8], in assay [20], in assay [9] and in assay [10] was greater than 100 µM each time. For the same molecule, the TGI in [11], in assay [12], in assay [13], in assay [14], in [15] and in assay [16] was greater than 100 µM each time. Besides, the total growth inhibition concentration (TGI) in assay [17] was greater than 100 µM.
Turning to `O=c1c2cc([N+](=O)[O-])ccc2n(Cc2ccccc2)n1Cc1ccccc1`, the TGI was greater than 31.6 µM in assay [1]; 20.7 µM in [2]; greater than 31.6 µM in assay [3]; greater than 31.6 µM in assay [4]; greater than 31.6 µM in assay [6]; greater than 31.6 µM in [19]. The concentration for total growth inhibition (TGI) in assay [7] is greater than 31.6 µM; in assay [8], greater than 31.6 µM; in [20], 27.3 µM; in assay [9], 17.5 µM; in assay [10] it was 26.9 µM; in assay [11], greater than 31.6 µM. The TGI in assay [12] was greater than 31.6 µM; in assay [13], greater than 31.6 µM; in [14] it was 29.1 µM; in assay [15] it was greater than 31.6 µM; in [16] it was greater than 31.6 µM; in [17], 24.7 µM. Besides, in assay [18], the TGI came out at 23.6 µM.
Turning to `C=C(C)CC1=C(OCC)C(OC)(OCC)C1=O` (stereo not given), the TGI in assay [1], in assay [2], in assay [3], in assay [4], in [5] and in [6] was greater than 100 µM throughout. Also, the TGI in assay [7], in [8], in assay [20], in assay [9], in [10] and in [11] was greater than 100 µM each time. Moreover, the TGI in assay [12], in [13], in assay [14], in assay [15], in assay [16] and in [17] was greater than 100 µM throughout. In addition, in assay [18], the TGI is greater than 100 µM.
For the molecule `CC(C)(C)[Si](C)(C)OCCCCC1CC2(S(=O)(=O)C3=CC=C=C=C3)ON1CC2S(=O)(=O)c1ccccc1` (stereo not given), the concentration for total growth inhibition (TGI) in assay [2], in assay [3], in assay [4], in assay [5], in assay [6] and in assay [19] was greater than 100 µM in each case. The total growth inhibition concentration (TGI) in [7], in [8], in assay [20], in [9], in assay [10] and in [11] was greater than 100 µM each time. For the same molecule, the total growth inhibition concentration (TGI) in assay [12], in assay [13], in assay [14], in assay [16] and in assay [17] was greater than 100 µM each time.
With `CC1=NN(C(=O)CC(=O)Nc2ccccc2Cl)C(=O)C1N=Nc1ccc(C(=O)O)cc1` (stereo not given), the TGI in assay [1], in assay [2], in [3], in assay [4], in [6] and in [19] was greater than 100 µM in each case. Also, the TGI in assay [7], in assay [8], in assay [20], in [9], in assay [10] and in assay [11] was greater than 100 µM each time. Further, the TGI in assay [12], in [13], in assay [14], in assay [15], in assay [16] and in assay [17] was greater than 100 µM in each case. The molecule further registered a TGI in assay [18] greater than 100 µM.
As to `COC(=O)CCC(NC(=O)C(C)NC(=O)COC1C(O)C(OC(=O)CCNc2c3ccccc3nc3cccc([N+](=O)[O-])c23)OC(OCc2ccccc2)C1NC(C)=O)C(N)=O` (stereo not given), the TGI in [1], in assay [2], in assay [3], in [4], in assay [5] and in assay [6] was greater than 10 µM in each case. Moreover, the TGI in assay [19] was 5.8 µM; in assay [7], greater than 10 µM; in assay [8], greater than 10 µM; in [20], greater than 10 µM; in assay [9], greater than 10 µM; in [10] it was greater than 10 µM. The total growth inhibition concentration (TGI) in [11] is greater than 10 µM; in [12] it was greater than 10 µM; in assay [13] it was greater than 10 µM; in [14], greater than 10 µM; in assay [15], greater than 10 µM; in assay [16], 4.44 µM. Besides, the TGI in assay [17] was greater than 10 µM.
